Results taken from patent publication US20230272077A1, “PD-1 SIGNAL INHIBITOR COMBINATION THERAPY” (KYOTO UNIVERSITY, priority 2015, published 2023).
Entries after “also recorded” stand apart in the source; their conditions may differ.

Legend:
PGC-1α = PGC-1α expression (Western blotting, real-time RT-PCR); assay type: in vivo, mouse; settings: combination therapy together with PD-L1 antibody
Description: RNA was isolated from CD8^+ T cells or tumor cells with the RNeasy Mini Kit (Qiagen), followed by cDNA synthesis by reverse transcription. Real-time PCR for PGC-1α was performed using the following primers: Forward […] (SEQ ID NO: 1) and Reverse […] (SEQ ID NO: 2). To analyze the expression levels of genes associated with apoptosis and mitochondrial energy metabolism, RT2 Profiler PCR Array Gene Expression Kit PAMM-012Z or PAMM-008Z (Qiagen) was used. The list of genes included in this assay can be found in www.sabiosciences.com/Apoptosis.php.
CD8^+ T cells were isolated using mouse CD8 Microbeads (Miltenyi Biotec). After washing with PBS twice, 2×10^6 cells were solubilized in a lysis buffer containing 30 mM Tris-HCl (pH.7.4), 150 mM NaCl, 10% glycerol, 0.1% SDS, 1% Triton-X-100, 0.05% Na-Doc, 5 mM EDTA (pH.8.0), protease inhibitor mixture (Roche Molecular Biochemicals) and phosphatase inhibitors (Nacalai Tesque). After measurement of protein concentrations by DC protein assay (Bio-Rad), 4 μg of proteins was mounted on 4 to 20% gradient Mini-PROTEAN TGX Gels (Bio-Rad) and electroblotted onto nitrocellulose membranes, which were then incubated in a blocking buffer of TBS containing 1% BSA. Primary antibody incubations were carried out overnight at 4° C. in blocking buffer. After washing, secondary antibody incubations were carried out at room temperature for 40 min in blocking buffer. Blots were developed with enhanced chemiluminescence (Amersham Pharmacia). Primary antibodies recognizing the following proteins were used: Phospho-mTOR (P-mTOR) (Cat #5536), Phospho-AMPKa (P-AMPK) (#2535), Phospho-p70 S6 Kinase (P-S6K) (#9205), 4E-BP1 (#9644), Phospho-Acetyl-CoA Carboxylase (P-ACC) (#3661) and SIRT1 (#9475). All the primary antibodies were obtained from Cell Signaling Technology. An antibody recognizing PGC-1α (SC-13067) was obtained from Santa Cruz.

MC38 = experiment: Mouse therapy model, MC38-bearing mice (tumor volume, survival); assay type: in vivo; settings: MC38-bearing mice; for animal survival, triple combination of mTOR activator, AMPK activator and PD-L1 antibody / antitumor effect of triple combination of mTOR activator, AMPK activator and PD-L1 antibody: both activators with PD-L1 antibody; for enhancement of antitumor effect of PD-L1 antibody (tumor volume) / survival rate: reagent combined with PD-L1 antibody vs PD-L1 antibody alone; for antitumor effect when administered alone: reagent alone, no PD-L1 antibody, tumor volume
Description: (§1) MC38 (5×10^5) and MethA (5×10^5) cells were intradermally injected on the right flank. MC38 was inoculated into C57BL/6 mice and MethA was inoculated into BALB/c mice. For monotherapy, mice were intraperitoneally injected with 150 μg of PD-L1 mouse antibody (1-111A) (prepared by the laboratory of the present inventors) 5 days after the tumor inoculation. Therapy with PD-L1 antibody alone was repeated three times every 5 days. For combination therapy, administration of PD-L1 antibody and chemical agents started 7 days after tumor injection. Chemical agents were injected at a regular interval of 2 days and PD-L1 antibody at a regular interval of 5 days (shown in FIG. 3b). Tumors were measured on every alternate day, and tumor volumes were calculated using the formula for typical ellipsoid, π×(length×breadth×height/6).
(§2) The following chemical reagents were used at the indicated concentrations for combination therapy. AMPK activator: A769662, 6 mg/kg (Abcam); mTOR activator: MHY1485, 3 μg/kg (Sigma-Aldrich); uncoupler: carbonylcyanide-p-trifluoromethoxyphenylhydrazone (FCCP), 1.2 mg/kg (Abcam); uncoupler: 2,4-Dinitrophenol (DNP), 1.7 mg/kg (Aldrich); SIRT1 activator: resveratrol, 0.5 mg/kg (Abcam); ROS scavenger: Mn (III) tetrakis (4-benzoic acid) porphyrin (MnTBAP), 1.25 mg/kg (Calbiochem); ROS generator: tert-butyl hydroperoxide solution (Luperox TBH70X), 200 μL/kg (Sigma-Aldrich); ATP synthase inhibitor: oligomycin, 250 μg/kg (Sigma-Aldrich); paraquat 2 mg/kg (Nakalai Tesque); oltipraz 1.9 mg/kg (Sigma); bezafibrate 1 mg/kg (ChemCruz).
All reagents were freshly prepared just before use. Each reagent was dissolved in the solvent indicated in the instructions. Note that the AMPK activator, mTOR activator, uncouplers and SIRT1 activator were prepared from fresh unused vials in each series of experiments. Dissolved reagents were diluted in PBS, and a 200 l aliquot was injected per mouse.
Murine colon adenocarcinoma MC38 cells (5×10^5) were inoculated into C57BL/6 mice. After 7 days, anti-PD-L1 antibody (1-111A, 150 μg) and AMPK inhibitor (Compound C: 200 μg in BBS, 200 μL) were administered intraperitoneally. Anti-PD-L1 antibody was administered 3 times at a regular interval of 6 days; Compound C (C.C) was administered 7 times at a regular interval 2 days.
MC38 cells (5×10^5) were inoculated into C57BL/6 mice. After 7 days, anti-PD-L1 antibody (1-111A, 150 μg) and PGC-1α/transcription factor complex activator (2-(4-{2-[(4-chlorobenzoyl)amino]ethyl}phenoxy)-2-methylpropanoic acid (bezafibrate): 10 ug in PBS, 200 ul) were administered intraperitoneally. Anti-PD-L1 antibody was administered 3 times at a regular interval of 6 days; bezafibrate was administered 7 times at a regular interval 2 days.

MethA = experiment: Mouse therapy model, MethA-transplanted BALB/c mice (tumor volume); assay type: in vivo; settings: MethA in BALB/c mice, combined with PD-L1 antibody
Description: as §1, §2
MethA cells (5×10^5) were inoculated into BALB/c mice. After 7 days, anti-PD-L1 antibody (1-111A, 80 μg) and Foxo1 inhibitor (5-amino-7-(cyclohexylamino)-1-ethyl-6-fluoro-4-oxo-1,4-dihydroquinoline-3-carboxylic acid, Calbiochem) (2 mg/kg) were administered intraperitoneally.
Fibrosarcoma MethA (Cell Resource Center for Biomedical Research) cells (5×10^5) were inoculated into BALB/c mice. After 7 days, anti-PD-L1 antibody (1-111A, 60 μg) and Aminoleban (Otsuka Pharmaceutical, 400 μl/mouse) were administered.

tumor cells = experiment: Phenotypic and transcription profile analysis of tumor cells from mice treated with reagent alone; design: species or system mouse; settings: tumor cells from mice treated with reagent alone in vivo
Source text: FIG. 12. […] After enzymatic digestion, tumor cells were sorted with a cell isolation kit capable of excluding non-tumor cells. The isolated tumor cells were further purified with Aria and used in the following experiments. b) Tumor cells were stained with antibodies targeting PD-L1, MHC class I, CD155 (ligand of TIGIT), and VISTA or with dyes for mitochondrial mass, membrane potential, and superoxide. c) Expression levels of genes associated with mitochondrial energy metabolism and apoptosis were examined using RT^2 profiler PCR Kit.
For analyzing draining lymph nodes, cells from axillary, brachial, and inguinal lymph nodes on the right side of tumor-inoculated mice were harvested and mixed. Averaged cell numbers per one lymph node were used as absolute cell numbers. For tumor analysis, tumor tissues were minced into 2- to 3-mm pieces with scissors and digested with collagenase type IV (Thermo Fisher Scientific) using a gentle MACS Dissociator (Miltenyi Biotec). The numbers of tumor cells per mg were used as absolute numbers. Tumor cells were isolated from digested tumor tissues using a Tumor Cell Isolation Kit, mouse (Miltenyi Biotec). This kit purifies tumor cells by excluding lymphocytes, red blood cells, fibroblasts, endothelial cells and tumor-associated stromal cells. The resultant tumor cell population was further isolated/purified with FACS Aria (BD Biosciences). […]

IFN-γ = experiment: Intracellular IFN-γ staining of CD8+ T cells from digested tumor tissues; assay type: in vivo, mouse; settings: CD8+ T cells in tumors; combined with PD-L1 antibody
Description: (§3) FIG. 15. […] Data represent the means±SEM of five mice. *p<0.05, **p<0.01, one-way ANOVA.
(§4) The following antibodies recognizing the indicated antigens were used: CD44 (1M7), CD45.2 (104), CD45.1 (A20), CD8 (53-6.7), CD62L (MEL-14), T-bet (4B/O) and IFN-7 (XMG1.2), MHC class I (AF6-88.5), CD155 (Tx56) and VISTA (MIH63) from BioLegend; p-AMPK (EPR5683) from Ancam; p-mTOR (MRRBY), Eomes (Danllmag) and PD-L1 (M1H5) from eBioscience. All flow cytometry experiments were performed on a FACS Canto II (BD Biosciences) and analyzed using FlowJo software (FLOWJO, LLC). For assessment of intracellular phosphoproteins, cells were permeabilized with 0.5% Triton-X and fixed with 1.5% PFA before staining. Determination of mitochondrial mass, membrane potential, mitochondrial superoxide and cellular ROS was performed using MitoTracker Green, Mito-Tracker Deep Red, MitoSOX Red, and CellROX Green reagents, respectively (all from Life Technologies). These dyes were added to cells to a final concentration of 0.125 μM, 0.125 μM, 5.0 μM and 0.625 μM, respectively, and incubated at 37° C. in a 5% CO2 humidified incubator for 30 min.

T-bet and Eomes = T-bet and Eomes expression by flow cytometry in DLN CD8+ T cells; assay type: in vivo, mouse; settings: combined with PD-L1 antibody
Description: as §3, §4

Structure (SMILES): N#Cc1c(O)c2c(-c3ccc(-c4ccccc4O)cc3)csc2[nH]c1=O [AMPK activator, 6,7-dihydro-4-hydroxy-3-(2′-hydroxy[1,1′-biphenyl]-4-yl)-6-oxo-thieno[2,3-b]pyridine-5-carbonitrile]
- expression levels of PGC-1α protein and mRNA (PGC-1α): increased
- animal survival, triple combination of mTOR activator, AMPK activator and PD-L1 antibody (MC38): improved animal survival
- antitumor effect of triple combination of mTOR activator, AMPK activator and PD-L1 antibody (MC38): further enhanced the effect of PD-L1 antibody
- enhancement of antitumor effect of PD-L1 antibody (tumor volume) (MC38): moderately augmented the efficacy of PD-1 blockade therapy in the early phase

Structure (SMILES): CCn1cc(C(=O)O)c(=O)c2c(N)c(F)c(NC3CCCCC3)cc21 [Foxo1 inhibitor, 5-amino-7-(cyclohexylamino)-1-ethyl-6-fluoro-4-oxo-1,4-dihydroquinoline-3-carboxylic acid]
- enhancement of antitumor effect of PD-L1 antibody (tumor volume) (MethA): enhances the efficacy of anti-PD-L1 antibody therapy
- enhancement of antitumor effect of PD-L1 antibody (tumor volume) (MethA; listed as AS1842856): Synergistic effect

Structure (SMILES): CC(C)(C)OO [Luperox, tert-butyl hydroperoxide]
- antitumor activity of triple combination of PD-L1 antibody, DNP and Luperox (MC38; DNP and Luperox both with PD-L1 antibody): stronger antitumor activity; also recorded: Antitumor effect is enhanced
- antitumor effect when administered alone (MC38): no antitumor activity was observed
- enhancement of antitumor effect of PD-L1 antibody (tumor volume) (MC38): remarkably enhanced the antitumor effect; also recorded: Synergistic effect
- survival rate (MC38): improved the survival rate
- changes in immune-regulatory surface markers and transcriptional profiles of tumor cells (tumor cells): no significant changes; also recorded: little effect on tumor cells in vivo

Structure (SMILES): O=C(O)c1ccc(-c2c3nc(c(-c4ccc(C(=O)O)cc4)c4ccc([n-]4)c(-c4ccc(C(=O)O)cc4)c4nc(c(-c5ccc(C(=O)O)cc5)c5ccc2[n-]5)C=C4)C=C3)cc1.[Mn+3] [MnTBAP, Mn (III) tetrakis (4-benzoic acid) porphyrin]
- effect of ROS scavenger on combination therapy using PD-L1 antibody and uncouplers (MC38; added to PD-L1 antibody + FCCP or DNP): inhibited

Structure (SMILES): Oc1ccc(/C=C/c2cc(O)cc(O)c2)cc1 [Resveratrol, trans-3,5,4′-trihydroxystilbene]
- antitumor effect when administered alone (MC38): no tumor growth inhibitory effect was observed
- enhancement of antitumor effect of PD-L1 antibody (tumor volume) (MC38): remarkably reduced tumor sizes; also recorded: remarkable tumor inhibitory effect
- survival rate (MC38): improved the survival rate

Structure (SMILES): CC(C)(Oc1ccc(CCNC(=O)c2ccc(Cl)cc2)cc1)C(=O)O [bezafibrate, 2-(4-{2-[(4-chlorobenzoyl)amino]ethyl}phenoxy)-2-methylpropanoic acid]
- IFN-γ production (IFN-γ): increased; also recorded: up-regulated
- Eomes expression (T-bet and Eomes): reduced Eomes
- T-bet expression (T-bet and Eomes): increased T-bet; also recorded: activated T-bet; also recorded: up-regulated
- enhancement of antitumor effect of PD-L1 antibody (tumor volume) (MC38): enhanced the tumor growth inhibitory effect of PD-L1 antibody; also recorded: synergize with PD-L1 antibody; also recorded: Synergistic effect
- survival rate (MC38): improved the survival rate
- enhancement of antitumor effect of PD-L1 antibody (tumor volume) (MC38; listed as PGC-1α/transcription factor complex activator): enhances the efficacy of anti-PD-L1 antibody therapy

Structure (SMILES): O=[N+]([O-])c1ccc(Nc2nc(N3CCOCC3)nc(N3CCOCC3)n2)cc1 [mTOR activator, 4,6-Di-4-morpholinyl-N-(4-nitrophenyl)-1,3,5-triazin-2-amine]
- expression levels of PGC-1α protein and mRNA (PGC-1α): increased
- animal survival, triple combination of mTOR activator, AMPK activator and PD-L1 antibody (MC38): improved animal survival
- antitumor effect of triple combination of mTOR activator, AMPK activator and PD-L1 antibody (MC38): further enhanced the effect of PD-L1 antibody
- enhancement of antitumor effect of PD-L1 antibody (tumor volume) (MC38): moderately augmented the efficacy of PD-1 blockade therapy in the early phase

Structure (SMILES): C[n+]1ccc(-c2cc[n+](C)cc2)cc1.[Cl-].[Cl-] [paraquat, 1,1′-dimethyl-4,4′-bipyridinium dichloride]
- enhancement of antitumor effect of PD-L1 antibody (tumor volume) (MethA): enhanced the antitumor effect of PD-L1 antibody
- enhancement of antitumor effect of PD-L1 antibody (tumor volume) (MC38): enhanced the effect for PD-1 blockade
